Source: PMC8405091, “Microwave-assisted Phospha-Michael addition reactions in the 13α-oestrone series and in vitro antiproliferative properties” (Journal of Enzyme Inhibition and Medicinal Chemistry, 2021)
Read-outs that look alike come from different tables or passages of the source.

How the values were obtained:
A2780 cells = test: MTT antiproliferative assay, A2780; type: cell-based, human
Description: (§1) The antiproliferative properties of the newly synthesized compounds (9–20) and their starting materials (4 and 5) were determined on a panel of human adherent cancer cell lines. MCF-7, MDA-MB-231 and T47D were isolated from breast cancers differing in biochemical background, while A2780 cells were isolated from ovarian cancer. HeLa and SiHa are cervical cancer cell lines positive for HPV-18 and HPV-16, respectively, while C33-A cervical cancer cells are negative for HPV. Moreover, two oropharyngeal cancer cell lines were also utilized: the HPV-negative UPCI-SCC-131 and HPV-16 positive UPCI-SCC-154. The cancer selectivity of compounds was tested on the non-cancerous mouse embryo fibroblast cell line NIH/3T3. All cell lines were purchased from European Collection of Cell Cultures (ECCAC, Salisbury, UK) exception for SiHa and C33-A (American Tissue Culture Collection, Manassas, VA, USA) and HN-SCC-131 and UPCI-SCC-154 (German Collection of Microorganisms and Cell Cultures GmbH, Braunschweig, Germany). Cells were cultivated in minimal essential medium supplemented with 10% fetal bovine serum, 1% non-essential amino acids and an antibiotic–antimycotic mixture. The medium of oropharyngeal cancer cells additionally contained 2.0 mM L-glutamine. All media and supplements were obtained from Lonza Group Ltd., Basel, Switzerland. Near-confluent cancer cells were seeded onto a 96-well microplate at a density of 5,000 cells/well, except for C33-A which were seeded at 10,000/well. After overnight standing, new medium containing the tested compounds at 10 and 30 µM final concentration was added. After incubation for 72 h at 37 °C in humidified air containing 5% CO2, the living cells were assayed by the addition of 20 μL of 5 mg/ml 3-(4,5-dimethylthiazol-2-yl)-2,5-diphenyltetrazolium bromide (MTT) solution. MTT was converted by intact mitochondrial reductase and precipitated as purple crystals during a 4-h contact period. The medium was next removed and the precipitated formazan crystals were dissolved in 100 μL of DMSO during a 60-min period of shaking at 37 ^оC.
(§2) All in vitro experiments were carried out twice with five parallels. Stock solutions of the tested substances (10 mM) were prepared in DMSO. […] Cisplatin (Ebewe Pharma GmbH, Unterach, Austria) was used as positive control.

T47D cells = test: MTT antiproliferative assay, T47D; type: cell-based, human; conditions: Homo sapiens, 72 h; for IC50: read-out: calculated IC50 value
Description: as §1, §2

MCF-7 cells = test: MTT antiproliferative assay, MCF-7; type: cell-based, human; conditions: Homo sapiens; for inhibition at 10 µM: MCF-7, 10 μM; for inhibition at 10 µM / inhibition at 30 µM: 72 h, read-out: Growth inhibition, % ± SEM; for inhibition at 30 µM: MCF-7, 30 μM; for IC50: read-out: calculated IC50 value
Description: as §1, §2

UPCI-SCC-131 cells = test: MTT antiproliferative assay, UPCI-SCC-131; type: cell-based, human; conditions: Homo sapiens; for inhibition at 10 µM: UPCI-SCC-131, 10 μM; for inhibition at 10 µM / inhibition at 30 µM: read-out: Growth inhibition, % ± SEM; for inhibition at 30 µM: UPCI-SCC-131, 30 μM; for IC50: read-out: calculated IC50 value
Description: as §1, §2

HeLa cells = test: MTT antiproliferative assay, HeLa; type: cell-based, human; conditions: Homo sapiens, 72 h; for IC50: read-out: calculated IC50 value
Description: as §1, §2

C33-A cells = test: MTT antiproliferative assay, C33-A; type: cell-based, human; conditions: Homo sapiens, C-33-A, 72 h; for IC50: read-out: calculated IC50 value
Description: as §1, §2

MDA-MB-231 cells = test: MTT antiproliferative assay, MDA-MB-231; type: cell-based, human
Description: as §1, §2

SiHa cells = test: MTT antiproliferative assay, SiHa; type: cell-based, human; conditions: Homo sapiens, 72 h; for IC50: read-out: calculated IC50 value
Description: as §1, §2

UPCI-SCC-154 cells = test: MTT antiproliferative assay, UPCI-SCC-154; type: cell-based, human; conditions: Homo sapiens; for inhibition at 10 µM: UPCI-SCC-154, 10 μM; for inhibition at 10 µM / inhibition at 30 µM: read-out: Growth inhibition, % ± SEM; for inhibition at 30 µM: UPCI-SCC-154, 30 μM; for IC50: read-out: calculated IC50 value
Description: as §1, §2

[1] = system: non-cancerous mouse embryo fibroblast (NIH/3T3) cells; test: MTT assay on non-cancerous fibroblasts (tumour selectivity); type: cell-based; conditions: for inhibition at 10 µM / inhibition at 30 µM / IC50: Mus musculus; for inhibition at 10 µM / inhibition at 30 µM: read-out: Growth inhibition, % ± SEM; for IC50: read-out: calculated IC50 value
Description: as §1, §2

[2] = 10 μM, read-out: Growth inhibition, % ± SEM
[3] = 30 μM, read-out: Growth inhibition, % ± SEM
[4] = read-out: Growth inhibition, % ± SEM, 10 μM
[5] = read-out: Growth inhibition, % ± SEM, 30 μM
[6] = Homo sapiens, MDA-MB-231, 72 h, read-out: Growth inhibition; % ± SEM

C=C1C[C@H]2[C@@H]3CCc4cc(OC)ccc4[C@H]3CC[C@@]2(C)C1=O [Compound 4, 3-methoxy-16-methylene derivative]
IC50 (A2780 cells; Homo sapiens, A2780, 72 h; read-out: calculated IC50 value): 6.24 µM | inhibition at 10 µM (A2780 cells; Homo sapiens; A2780, 10 μM, 72 h; read-out: Growth inhibition; % ± SEM): 96.9 ± 1.52% | inhibition at 30 µM (A2780 cells; Homo sapiens; A2780, 30 μM, 72 h; read-out: Growth inhibition; % ± SEM): 100.5 ± 0.22% | inhibition at 10 µM (T47D cells; [2]): 99.68 ± 0.74% | inhibition at 30 µM (T47D cells; [3]): 99.92 ± 0.71% | IC50 (T47D cells): 3.46 µM | inhibition at 10 µM (MCF-7 cells; MCF7): 99.52 ± 0.51% | inhibition at 30 µM (MCF-7 cells; MCF7): 99.83 ± 0.44% | IC50 (MCF-7 cells; MCF7, MCF-7, 72 h): 3.7 µM | inhibition at 10 µM (UPCI-SCC-131 cells; 72 h): 99.8 ± 0.36% | inhibition at 30 µM (UPCI-SCC-131 cells; 72 h): 99.88 ± 0.39% | IC50 (UPCI-SCC-131 cells; UPCI-SCC-131, 72 h): 3.17 µM | inhibition at 10 µM (HeLa cells; [2]): 85.1 ± 2.44% | inhibition at 30 µM (HeLa cells; [3]): 99.43 ± 0.28% | IC50 (HeLa cells): 4.45 µM | inhibition at 10 µM (C33-A cells; C33-A, 10 μM, read-out: Growth inhibition, % ± SEM): 99.57 ± 0.61% | inhibition at 30 µM (C33-A cells; C33-A, 30 μM, read-out: Growth inhibition, % ± SEM): 99.55 ± 0.39% | IC50 (C33-A cells; C33-A): 3.6 µM | IC50 (MDA-MB-231 cells; Homo sapiens, MDA-MB-231, 72 h; read-out: calculated IC50 value): 3.97 µM | inhibition at 10 µM (MDA-MB-231 cells; Homo sapiens; MDA-MB-231, 10 μM, 72 h; read-out: Growth inhibition; % ± SEM): 99.97 ± 0.71% | inhibition at 30 µM (MDA-MB-231 cells; Homo sapiens; MDA-MB-231, 30 μM, 72 h; read-out: Growth inhibition; % ± SEM): 94.6 ± 2.26% | inhibition at 10 µM (SiHa cells; [2]): 97.44 ± 0.54% | inhibition at 30 µM (SiHa cells; [3]): 99.28 ± 0.42% | IC50 (SiHa cells): 3.31 µM | inhibition at 10 µM (UPCI-SCC-154 cells; 72 h): 97.3 ± 1.1% | inhibition at 30 µM (UPCI-SCC-154 cells; 72 h): 97.81 ± 0.65% | IC50 (UPCI-SCC-154 cells; UPCI-SCC-154, 72 h): 5.15 µM | inhibition at 10 µM ([1]; NIH3T3, NIH/3T3, 10 μM, 72 h): 101.1 ± 0.67% | inhibition at 30 µM ([1]; NIH3T3, NIH/3T3, 30 μM, 72 h): 100.9 ± 0.71% | IC50 ([1]; NIH3T3, NIH/3T3, 72 h): 2.79 µM

COc1ccc2c(c1)CC[C@@H]1[C@@H]2CC[C@@]2(C)C(=O)[C@H](CP(=O)(c3ccccc3)c3ccccc3)C[C@@H]12 [Compound 9, [(3-methoxy-17-oxo-13α-oestra-1,3,5(10)-trien-16α-yl)methyl]diphenylphosphine oxide]
inhibition at 10 µM (A2780 cells; Homo sapiens, A2780, 72 h, read-out: Growth inhibition; % ± SEM, A2780, 10 μM, 72 h): 47.2 ± 2.75% | inhibition at 30 µM (A2780 cells; Homo sapiens, A2780, 72 h, read-out: Growth inhibition; % ± SEM, A2780, 30 μM, 72 h): 98.99 ± 0.41% | IC50 (A2780 cells; Homo sapiens, A2780, 72 h, read-out: calculated IC50 value): 11.7 µM | inhibition at 10 µM (T47D cells; [4]): 57.5 ± 3.15% | inhibition at 30 µM (T47D cells; [5]): 93.77 ± 0.55% | IC50 (T47D cells): 7.2 µM | inhibition at 10 µM (MCF-7 cells; MCF7, 72 h): 21.3 ± 2.79% | inhibition at 30 µM (MCF-7 cells; MCF7, 72 h): 93.1 ± 1.6% | IC50 (MCF-7 cells; MCF7, 72 h): 13.7 µM | inhibition at 10 µM (UPCI-SCC-131 cells; 72 h, 72 h): 63.4 ± 1.41% | inhibition at 30 µM (UPCI-SCC-131 cells; 72 h, 72 h): 99.35 ± 0.27% | IC50 (UPCI-SCC-131 cells; 72 h): 5.3 µM | inhibition at 10 µM (HeLa cells; [4]): < 20% | inhibition at 30 µM (HeLa cells; [5]): 97.59 ± 0.73% | IC50 (HeLa cells): 12.9 µM | inhibition at 10 µM (C33-A cells; read-out: Growth inhibition, % ± SEM, C33-A, 10 μM): < 20% | inhibition at 30 µM (C33-A cells; read-out: Growth inhibition, % ± SEM, C33-A, 30 μM): 97.85 ± 0.32% | IC50 (C33-A cells): 13.3 µM | inhibition at 10 µM (MDA-MB-231 cells; [6]): < 20% | inhibition at 30 µM (MDA-MB-231 cells; [6]): 99.03 ± 0.73% | IC50 (MDA-MB-231 cells; Homo sapiens, MDA-MB-231, 72 h, read-out: calculated IC50 value): 23.5 µM | inhibition at 10 µM (SiHa cells; [4]): < 20% | inhibition at 30 µM (SiHa cells; [5]): 96.5 ± 1.24% | IC50 (SiHa cells): 13.8 µM | inhibition at 10 µM (UPCI-SCC-154 cells; 72 h, 72 h): < 20% | inhibition at 30 µM (UPCI-SCC-154 cells; 72 h, 72 h): 99.8 ± 1.48% | IC50 (UPCI-SCC-154 cells; 72 h): 13.5 µM | inhibition at 10 µM ([1]; NIH3T3, 72 h): < 20% | inhibition at 30 µM ([1]; NIH3T3, 72 h): 96.55 ± 0.86% | IC50 ([1]; NIH3T3, 72 h): 20.4 µM | Tumour selectivity: IC50 on NIH/3T3 relative to IC50 on UPCI-SCC-131 ([1]; NIH/3T3 vs UPCI-SCC-131): four times higher
